Test [1] deals with T1, human MetAP2 enzyme (Homo sapiens, UniProt P50579). As to the kind of experiment: MetAP2 enzyme assay, enzyme complexed with manganese ions. Conditions: MetAP2 Mn pIC50, MetAP2 enzyme complexed with manganese ions; Met-AMC substrate at Km.
The target in test [2] is T1, human MetAP2 enzyme. The test is described as follows: MetAP2 enzyme assay, enzyme complexed with cobalt ions. As to conditions: MetAP2 Co pIC50, MetAP2 enzyme complexed with cobalt ions; Met-AMC substrate at Km.
Method: DNA encoding the full-length sequence of human MetAP2 enzyme is amplified by PCR and cloned into a pFastBac expression vector (Invitrogen). Recombinant baculovirus incorporating the MetAP2 construct is generated by transposition using the Bac-to-Bac system (Invitrogen). The expression of recombinant protein is carried out by infection of Spodoptera frugiperda Sf9 cells (Invitrogen) in 5 L Wave Bioreactors (Wave Biotech). Recombinant protein is isolated from cellular extracts by binding to an SP Hitrap Fast Flow or SP Sepharose (Sigma) column, and the protein is eluted using a NaCl gradient. Partially purified extracts of MetAP2 are further purified by an AKTA FPLC over a Superdex-200 column (GE). The purity of MetAP2 protein is determined on denaturing SDS-PAGE gel.
The results for each well are expressed as percent inhibition and calculated using the equation:

The structures appear in SMILES notation.

Broadly, the IC50 is the point on the concentration scale where inhibition reaches its midpoint. A lower IC50 goes with greater potency.

T1 sequence (P50579 whole entry): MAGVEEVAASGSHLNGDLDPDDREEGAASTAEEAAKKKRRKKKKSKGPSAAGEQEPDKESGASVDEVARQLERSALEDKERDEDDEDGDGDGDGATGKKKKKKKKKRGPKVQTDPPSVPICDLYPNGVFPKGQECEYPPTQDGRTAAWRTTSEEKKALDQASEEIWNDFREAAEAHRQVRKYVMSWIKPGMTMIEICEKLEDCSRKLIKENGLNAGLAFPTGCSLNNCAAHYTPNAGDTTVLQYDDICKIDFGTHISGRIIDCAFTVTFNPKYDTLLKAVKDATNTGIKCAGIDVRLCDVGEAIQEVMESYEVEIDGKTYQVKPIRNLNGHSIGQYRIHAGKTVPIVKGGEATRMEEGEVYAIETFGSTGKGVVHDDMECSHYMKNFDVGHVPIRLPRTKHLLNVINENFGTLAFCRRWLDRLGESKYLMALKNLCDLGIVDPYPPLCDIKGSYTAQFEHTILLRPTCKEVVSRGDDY

Consider `COc1cncc(-c2cc(C(F)(F)F)cc3[nH]ncc23)c1` [Example 42, 4-(5-methoxypyridin-3-yl)-6-(trifluoromethyl)-1H-indazole], for which the IC50 on human MetAP2 enzyme [1] was 6.31 nM; against human MetAP2 enzyme [2], 63.1 nM.
In the same order, the values of `FC(F)(F)c1cc(-c2cnn(Cc3ccncc3)c2)c2cn[nH]c2c1` [Example 43, 4-(1-(pyridin-4-ylmethyl)-1H-pyrazol-4-yl)-6-(trifluoromethyl)-1H-indazole] are 6.31 nM and 79.4 nM.
In the same order, the values of `CS(=O)(=O)Nc1ccccc1-c1cc(C(F)(F)F)cc2[nH]ncc12` [Example 44, N-(2-(6-(trifluoromethyl)-1H-indazol-4-yl)phenyl)methanesulfonamide] are 5.01 nM and 50.1 nM.
In the same order, the values of `CN(C)C(=O)c1ccccc1-c1cc(C(F)(F)F)cc2[nH]ncc12` [Example 47, N,N-dimethyl-2-(6-(trifluoromethyl)-1H-indazol-4-yl)benzamide] are 50.1 nM and 501 nM.
Consider `COCc1ccc(-c2cc(C(F)(F)F)cc3[nH]ncc23)cc1` [Example 48, 4-(4-(methoxymethyl)phenyl)-6-(trifluoromethyl)-1H-indazole], for which the IC50 is 5.01 nM against human MetAP2 enzyme [1] and 50.1 nM at human MetAP2 enzyme [2].
Consider `FC(F)(F)c1cc(-c2ccncc2Cl)c2cn[nH]c2c1` [Example 49, 4-(3-chloropyridin-4-yl)-6-(trifluoromethyl)-1H-indazole], for which the IC50 is 15.8 nM against human MetAP2 enzyme [1] and 200 nM against human MetAP2 enzyme [2].
Consider `Cc1ncccc1-c1cc(C(F)(F)F)cc2[nH]ncc12` [Example 50, 4-(2-methylpyridin-3-yl)-6-(trifluoromethyl)-1H-indazole], for which the IC50 against human MetAP2 enzyme [1] was 5.01 nM; at human MetAP2 enzyme [2] it was 31.6 nM.
On to `Cn1c(-c2cc(C(F)(F)F)cc3[nH]ncc23)cc2ccccc21` [Example 51, 4-(1-methyl-1H-indol-2-yl)-6-(trifluoromethyl)-1H-indazole], for which the values for the IC50 at human MetAP2 enzyme [1] and at human MetAP2 enzyme [2] were 100 nM and 2510 nM, respectively.
In the case of `N#Cc1ccccc1-c1cc(C(F)(F)F)cc2[nH]ncc12` [Example 52, 2-(6-(trifluoromethyl)-1H-indazol-4-yl)benzonitrile], the IC50 was 12.6 nM against human MetAP2 enzyme [1] and 126 nM on human MetAP2 enzyme [2].
Turning to `COc1ncccc1-c1cc(C(F)(F)F)cc2[nH]ncc12` [Example 53, 4-(2-methoxypyridin-3-yl)-6-(trifluoromethyl)-1H-indazole], the IC50 on human MetAP2 enzyme [1] was 5.01 nM; on human MetAP2 enzyme [2], 39.8 nM.
In the same order, the values of `O=c1[nH]cc(-c2cc(C(F)(F)F)cc3[nH]ncc23)c(=O)[nH]1` [Example 54, 5-(6-(trifluoromethyl)-1H-indazol-4-yl)pyrimidine-2,4(1H,3H)-dione] are 6.31 nM and 398 nM.
Take `CS(=O)(=O)Nc1ccc(-c2cc(C(F)(F)F)cc3[nH]ncc23)cc1` [Example 56, N-(4-(6-(trifluoromethyl)-1H-indazol-4-yl)phenyl)methanesulfonamide]: the IC50 was 12.6 nM against human MetAP2 enzyme [1] and 39.8 nM at human MetAP2 enzyme [2].
Take `FC(F)(F)c1cc(-c2cccc(N3CCOCC3)c2)c2cn[nH]c2c1` [Example 57, 4-(3-(6-(trifluoromethyl)-1H-indazol-4-yl)phenyl)morpholine]: the results for the IC50 against human MetAP2 enzyme [1] and against human MetAP2 enzyme [2] were 25.1 nM and 63.1 nM, respectively.
On to `FC(F)(F)c1cc(-c2ccc(OCC3CC3)nc2)c2cn[nH]c2c1` [Example 58, 4-(6-(cyclopropylmethoxy)pyridin-3-yl)-6-(trifluoromethyl)-1H-indazole], for which the IC50 on human MetAP2 enzyme [1] is 12.6 nM; against human MetAP2 enzyme [2], 126 nM.
For `FC(F)(F)c1cc(-c2cnc3[nH]ccc3c2)c2cn[nH]c2c1` [Example 59, 4-(1H-pyrrolo[2,3-b]pyridin-5-yl)-6-(trifluoromethyl)-1H-indazole], in that order: 12.6 nM and 79.4 nM.
With `FC(F)(F)c1cc(-c2csc(N3CCOCC3)n2)c2cn[nH]c2c1` [Example 60, 4-(4-(6-(trifluoromethyl)-1H-indazol-4-yl)thiazol-2-yl)morpholine], the IC50 was 50.1 nM against human MetAP2 enzyme [1] and 1000 nM at human MetAP2 enzyme [2].

Source of the values: patent US9434743B2, “Indazole derivatives” (TAKEDA PHARMACEUTICAL COMPANY LIMITED, priority 2012, dated 2016).
